Data published in patent US9693556B2, “Herbicidal pyridazinone derivatives” (SYNGENTA LIMITED, priority 2011, dated 2017).

Tests used:
Assay type in all cases: in vivo
[1] = system: Echinochloa crus-galli (ECHCG); experiment: Pre-emergence herbicidal glasshouse test on Echinochloa crus-galli; details: pre-emergence, 1000 g/h, evaluated after 13 days
In short: (§1)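 Scoring scale: 5=80-100%, 4=60-79%, 3=40-59%, 2=20-39%, 1=0-19% damage, assessed on day 13. Compound sprayed at 1000 g/h on soil-grown plants (day 1 pre-, day 8 post-emergence) kept at 24/16 °C, 14 h light.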

[2] = system: Amaranthus retoflexus (AMARE); experiment: Pre-emergence herbicidal glasshouse test on Amaranthus retoflexus; details: pre-emergence, 1000 g/h, evaluated after 13 days
In short: as §1

[3] = system: Alopecurus myosuroides (ALOMY); experiment: Post-emergence herbicidal glasshouse test on Alopecurus myosuroides; details: post-emergence, 1000 g/h, evaluated after 13 days
In short: as §1

[4] = system: Amaranthus retoflexus (AMARE); experiment: Post-emergence herbicidal glasshouse test on Amaranthus retoflexus; details: post-emergence, 1000 g/h, evaluated after 13 days
In short: as §1

Solanum nigrum (SOLNI) [5] = experiment: Post-emergence herbicidal glasshouse test on Solanum nigrum; details: post-emergence, 1000 g/h, evaluated after 13 days
In short: as §1

[6] = system: Ipomoea hederacea (IPOHE); experiment: Pre-emergence herbicidal glasshouse test on Ipomoea hederacea; details: pre-emergence, 1000 g/h, evaluated after 13 days
In short: as §1

[7] = system: Alopecurus myosuroides (ALOMY); experiment: Pre-emergence herbicidal glasshouse test on Alopecurus myosuroides; details: pre-emergence, 1000 g/h, evaluated after 13 days
In short: as §1

Setaria faberi (SETFA) [8] = experiment: Post-emergence herbicidal glasshouse test on Setaria faberi; details: post-emergence, 1000 g/h, evaluated after 13 days
In short: as §1

[9] = system: Echinochloa crus-galli (ECHCG); experiment: Post-emergence herbicidal glasshouse test on Echinochloa crus-galli; details: post-emergence, 1000 g/h, evaluated after 13 days
In short: as §1

Setaria faberi (SETFA) [10] = experiment: Pre-emergence herbicidal glasshouse test on Setaria faberi; details: pre-emergence, 1000 g/h, evaluated after 13 days
In short: as §1

[11] = system: Ipomoea hederacea (IPOHE); experiment: Post-emergence herbicidal glasshouse test on Ipomoea hederacea; details: post-emergence, 1000 g/h, evaluated after 13 days
In short: as §1

Solanum nigrum (SOLNI) [12] = experiment: Pre-emergence herbicidal glasshouse test on Solanum nigrum; details: pre-emergence, 1000 g/h, evaluated after 13 days
In short: as §1

SMILES | PRE Application ECHCG herbicidal damage (five point scale) [1] | PRE Application AMARE herbicidal damage (five point scale) [2] | POST Application ALOMY herbicidal damage (five point scale) [3] | POST Application AMARE herbicidal damage (five point scale) [4] | POST Application SOLNI herbicidal damage (five point scale) (Solanum nigrum (SOLNI) [5]) | PRE Application IPOHE herbicidal damage (five point scale) [6] | PRE Application ALOMY herbicidal damage (five point scale) [7] | POST Application SETFA herbicidal damage (five point scale) (Setaria faberi (SETFA) [8]) | POST Application ECHCG herbicidal damage (five point scale) [9] | PRE Application SETFA herbicidal damage (five point scale) (Setaria faberi (SETFA) [10]) | POST Application IPOHE herbicidal damage (five point scale) [11] | PRE Application SOLNI herbicidal damage (five point scale) (Solanum nigrum (SOLNI) [12]) | other results
Cc1c(-c2cnn(CC3CC3)c(=O)c2O)ccc(S(C)(=O)=O)c1C1=NOCC1 [Compound 1.120] | 5 (5=80-100% damage) | 5 (5=80-100% damage) | 5 (5=80-100% damage) | 5 (5=80-100% damage) | 5 (5=80-100% damage) | 4 (4=60-79% damage) | 3 (3=40-59% damage) | 5 (5=80-100% damage) | 5 (5=80-100% damage) | 4 (4=60-79% damage) | 5 (5=80-100% damage) | 4 (4=60-79% damage) | –
CC(C)n1ncc(-c2ccc(C(F)(F)F)cc2S(C)(=O)=O)c(O)c1=O [Compound 1.013] | 5 (5=80-100% damage) | 5 (5=80-100% damage) | 5 (5=80-100% damage) | 5 (5=80-100% damage) | 5 (5=80-100% damage) | 4 (4=60-79% damage) | 5 (5=80-100% damage) | 5 (5=80-100% damage) | 5 (5=80-100% damage) | 5 (5=80-100% damage) | 5 (5=80-100% damage) | 5 (5=80-100% damage) | –
COc1ccc(Cn2ncc(-c3ccc(S(C)(=O)=O)c(C4=NOCC4)c3C)c(O)c2=O)cc1 [Compound 1.002] | 1 (1=0-19% damage) | 1 (1=0-19% damage) | 1 (1=0-19% damage) | 3 (3=40-59% damage) | 5 (5=80-100% damage) | 1 (1=0-19% damage) | 1 (1=0-19% damage) | 1 (1=0-19% damage) | 1 (1=0-19% damage) | 1 (1=0-19% damage) | 2 (2=20-39% damage) | 1 (1=0-19% damage) | –
Cn1ncc(-n2ccc3ccccc3c2=O)c(O)c1=O [Compound 1.069] | 5 (5=80-100% damage) | 2 (2=20-39% damage) | 2 (2=20-39% damage) | 5 (5=80-100% damage) | 4 (4=60-79% damage) | 4 (4=60-79% damage) | 1 (1=0-19% damage) | 1 (1=0-19% damage) | 5 (5=80-100% damage) | 2 (2=20-39% damage) | 4 (4=60-79% damage) | 2 (2=20-39% damage) | –
Cn1nc(O)c(-c2ccc(C(F)(F)F)cc2S(C)(=O)=O)c(O)c1=O [Compound 2.056] | 5 (5=80-100% damage) | 5 (5=80-100% damage) | 5 (5=80-100% damage) | 5 (5=80-100% damage) | 5 (5=80-100% damage) | 3 (3=40-59% damage) | 4 (4=60-79% damage) | 5 (5=80-100% damage) | 5 (5=80-100% damage) | 5 (5=80-100% damage) | 5 (5=80-100% damage) | 5 (5=80-100% damage) | –
Cn1ncc(-c2cc(Br)c(Br)cc2S(C)(=O)=O)c(O)c1=O [Compound 1.160] | – | – | – | – | – | – | – | – | – | – | – | – | herbicidal damage, PRE Application ECHCG ([1]; five point scale): 5 (5=80-100% damage); herbicidal damage, PRE Application AMARE ([2]; five point scale): 5 (5=80-100% damage); herbicidal damage, POST Application ALOMY ([3]; five point scale): 3 (3=40-59% damage); herbicidal damage, POST Application AMARE ([4]; five point scale): 5 (5=80-100% damage); herbicidal damage, POST Application SOLNI (Solanum nigrum (SOLNI) [5]; five point scale): 5 (5=80-100% damage); herbicidal damage, PRE Application IPOHE ([6]; five point scale): 2 (2=20-39% damage); herbicidal damage, PRE Application ALOMY ([7]; five point scale): 1 (1=0-19% damage); herbicidal damage, POST Application SETFA (Setaria faberi (SETFA) [8]; five point scale): 4 (4=60-79% damage); herbicidal damage, POST Application ECHCG ([9]; five point scale): 5 (5=80-100% damage); herbicidal damage, PRE Application SETFA (Setaria faberi (SETFA) [10]; five point scale): 1 (1=0-19% damage); herbicidal damage, POST Application IPOHE ([11]; five point scale): 5 (5=80-100% damage); herbicidal damage, PRE Application SOLNI (Solanum nigrum (SOLNI) [12]; five point scale): 4 (4=60-79% damage)
Cc1cc(C#N)ccc1-c1cnn(C)c(=O)c1O [Compound 1.084] | 1 (1=0-19% damage) | 1 (1=0-19% damage) | 1 (1=0-19% damage) | 4 (4=60-79% damage) | 4 (4=60-79% damage) | 1 (1=0-19% damage) | 1 (1=0-19% damage) | 2 (2=20-39% damage) | 3 (3=40-59% damage) | 1 (1=0-19% damage) | 4 (4=60-79% damage) | 1 (1=0-19% damage) | –
Cn1ncc(-c2ccc(OCC(F)(F)F)cc2S(C)(=O)=O)c(O)c1=O [Compound 2.030] | 5 (5=80-100% damage) | 5 (5=80-100% damage) | 5 (5=80-100% damage) | 5 (5=80-100% damage) | 5 (5=80-100% damage) | 4 (4=60-79% damage) | 5 (5=80-100% damage) | 5 (5=80-100% damage) | 5 (5=80-100% damage) | 5 (5=80-100% damage) | 5 (5=80-100% damage) | 5 (5=80-100% damage) | –
